# Assay results taken from PubChem BioAssay AID330 (DTP/NCI, 2004).
# Where “and” joins values, the source holds several entries; their conditions need not be identical. Equal values may be shown once. Toxic doses and inconclusive results are not listed.
# Tested on: P388 leukemia ip, CD2F1 mice, survival T/C
# Test: NCI In Vivo Anticancer Drug Screen. Data for tumor model P388 Leukemia (intraperitoneal) in CD2F1 (CDF1) mice
# Settings: endpoint: median survival time, higher = longer survival
# Procedure, shortened: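 Mice carrying the transplanted tumor received test compound or vehicle. Survival was recorded in each group, and the value is the treated-group measurement divided by that of the vehicle-treated control group.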
# [1] = dose: 25.0 mg/kg/injection, schedule: Q01DX009 (ip), vehicle: saline with Tween-80
# [2] = dose: 50.0 mg/kg/injection, schedule: Q01DX009 (ip), vehicle: saline with Tween-80
# [3] = dose: 50.0 mg/kg/injection, schedule: Q01DX009 (ip), vehicle: Klucel (hydroxypropylcellulose) (HPC)
# [4] = dose: 100.0 mg/kg/injection, schedule: Q01DX009 (ip), vehicle: Klucel (hydroxypropylcellulose) (HPC)
compound,measurement,setting,value
Cc1cc([O-])c([I+]c2ccccc2)c(=O)[nH]1,T/C,"dose: 50.0 mg/kg/injection, schedule: Q01DX005 (ip), vehicle: Klucel (hydroxypropylcellulose) (HPC)",103 % of control
same,T/C,"dose: 100.0 mg/kg/injection, schedule: Q01DX005 (ip), vehicle: Klucel (hydroxypropylcellulose) (HPC)",110 % of control
same,T/C,"dose: 200.0 mg/kg/injection, schedule: Q01DX005 (ip), vehicle: Klucel (hydroxypropylcellulose) (HPC)",102 % of control
CN(C)C(=[Se])[Se]C(=[Se])N(C)C,T/C,"dose: 3.75 mg/kg/injection, schedule: Q01DX005 (ip), vehicle: Klucel (hydroxypropylcellulose) (HPC)",99 % of control
same,T/C,"dose: 7.5 mg/kg/injection, schedule: Q01DX005 (ip), vehicle: Klucel (hydroxypropylcellulose) (HPC)",99 % of control
same,T/C,"dose: 15.0 mg/kg/injection, schedule: Q01DX005 (ip), vehicle: Klucel (hydroxypropylcellulose) (HPC)",100 % of control
COc1ccc(-c2cnnn2Cc2ccco2)cc1,T/C,"dose: 100.0 mg/kg/injection, schedule: Q04DX002 (ip), vehicle: Klucel (hydroxypropylcellulose) (HPC)",105 % of control
same,T/C,"dose: 200.0 mg/kg/injection, schedule: Q04DX002 (ip), vehicle: Klucel (hydroxypropylcellulose) (HPC)",100 % of control
same,T/C,"dose: 400.0 mg/kg/injection, schedule: Q04DX002 (ip), vehicle: Klucel (hydroxypropylcellulose) (HPC)",102 % of control
C[n+]1c(-c2cccc(OCCCCCCCCCCOc3cccc(-c4c5cc(N)ccc5c5ccc(N)cc5[n+]4C)c3)c2)c2cc(N)ccc2c2ccc(N)cc21,T/C,"dose: 0.39 mg/kg/injection, schedule: Q01DX005 (ip), vehicle: water",168 % of control
same,T/C,"dose: 0.78 mg/kg/injection, schedule: Q01DX005 (ip), vehicle: water",153 % of control and 168 % of control
same,T/C,"dose: 0.78 mg/kg/injection, schedule: Q01DX009 (ip), vehicle: water",153 % of control
same,T/C,"dose: 1.56 mg/kg/injection, schedule: Q01DX005 (ip), vehicle: water",174 % of control
same,T/C,"dose: 1.56 mg/kg/injection, schedule: Q01DX009 (ip), vehicle: water",170 % of control
same,T/C,"dose: 3.0 mg/kg/injection, schedule: Q01DX009 (ip), vehicle: water",169 % of control
same,T/C,"dose: 3.12 mg/kg/injection, schedule: Q01DX009 (ip), vehicle: water",153 % of control
same,T/C,"dose: 6.25 mg/kg/injection, schedule: Q01DX009 (ip), vehicle: water",122 % of control
COc1ccc(OCCC(=O)O)cc1,T/C,"dose: 1.56 mg/kg/injection, schedule: Q01DX009 (ip), vehicle: saline with Tween-80",109 % of control
same,T/C,"dose: 3.12 mg/kg/injection, schedule: Q01DX009 (ip), vehicle: saline with Tween-80",112 % of control
same,T/C,"dose: 6.25 mg/kg/injection, schedule: Q01DX009 (ip), vehicle: saline with Tween-80",112 % of control and 86 % of control
same,T/C,[1],105 % of control
same,T/C,[2],102 % of control
C/C=C(\C)C(=O)OC1C(O)C(C)(C)C2C3C(=O)C=C(C)C2C3(C)C1OC(=O)/C(C)=C/C (configuration not stated),T/C,"dose: 12.5 mg/kg/injection, schedule: Q01DX009 (ip), vehicle: Klucel (hydroxypropylcellulose) (HPC)",103 % of control
same,T/C,"dose: 25.0 mg/kg/injection, schedule: Q01DX009 (ip), vehicle: Klucel (hydroxypropylcellulose) (HPC)",100 % of control
same,T/C,[3],103 % of control
same,T/C,[4],103 % of control
CCCN1CCN(c2ccc([N+](=O)[O-])c3no[n+]([O-])c23)CC1,T/C,"dose: 1.25 mg/kg/injection, schedule: Q01DX009 (ip), vehicle: saline",98 % of control and 97 % of control
same,T/C,"dose: 2.5 mg/kg/injection, schedule: Q01DX009 (ip), vehicle: saline",100 % of control and 107 % of control
same,T/C,"dose: 5.0 mg/kg/injection, schedule: Q01DX009 (ip), vehicle: saline",100 % of control and 108 % of control
same,T/C,"dose: 10.0 mg/kg/injection, schedule: Q01DX009 (ip), vehicle: saline",110 % of control and 120 % of control
CC1(C)OC(=O)C(=Cc2ccc(C#N)cc2)C(=O)O1,T/C,"dose: 60.0 mg/kg/injection, schedule: Q01DX005 (ip), vehicle: saline with Tween-80",108 % of control
same,T/C,"dose: 120.0 mg/kg/injection, schedule: Q01DX005 (ip), vehicle: saline with Tween-80",102 % of control
same,T/C,"dose: 240.0 mg/kg/injection, schedule: Q01DX005 (ip), vehicle: saline with Tween-80",111 % of control
COC(=O)C1=C/CCCN(C=O)/C=C\1C(=O)OC,T/C,"dose: 100.0 mg/kg/injection, schedule: Q04DX003 (ip), vehicle: alcohol",103 % of control
same,T/C,"dose: 200.0 mg/kg/injection, schedule: Q04DX003 (ip), vehicle: alcohol",103 % of control
same,T/C,"dose: 400.0 mg/kg/injection, schedule: Q04DX003 (ip), vehicle: alcohol",103 % of control
CC(=O)Nc1ccc2c(ccc3ccccc32)c1,T/C,[1],107 % of control
same,T/C,[2],113 % of control
same,T/C,"dose: 100.0 mg/kg/injection, schedule: Q01DX009 (ip), vehicle: saline with Tween-80",118 % of control
same,T/C,"dose: 200.0 mg/kg/injection, schedule: Q01DX009 (ip), vehicle: saline with Tween-80",115 % of control
O=C(CC(Sc1ccccc1)c1cccc([N+](=O)[O-])c1)c1ccccc1 (configuration not stated),T/C,[3],93 % of control
same,T/C,[4],95 % of control
